Measurements taken from patent publication US20250109132A1, “COMPOUNDS AND METHODS FOR TREATING FRIEDREICH'S ATAXIA” (Design Therapeutics, Inc., priority 2022, published 2025).

Tested on: human FXN
Test: EC50 Assay: FXN mRNA expression by qRT-PCR in GM15850 cells
Type: cell-based
Settings: GM15850 cell suspension, 48 hrs incubation, hFXN expression normalized to hGAPDH, 5-point 3-fold dose response, read-out: EC50 WT (nM, 48 hr)
Protocol: Cell culture: Cells were cultured in RPMI1640 medium+15% FBS. Cells were maintained at a density between […]. Cells were centrifuged, resuspended in fresh medium, counted and plated at 150,000 cells per well in 100 μL in a non-coated, flat bottom tissue culture plate.
Compound treatment: 10 mM stock solution of FA GeneTAC was diluted 1:10 in DMSO followed by a 1:100 dilution in growth medium. Working solution was then further diluted to 1OX desired final concentration of 150 nM. Compound was then diluted at a 1:3 ratio into growth medium containing 0.01% DMSO. 5-point, 3-fold dose response curve was generated. 11 μL of 10× compound was added to wells containing 100 μL cell suspension of GM15850. 11 μL growth medium containing 0.01% DMSO was added to all wells not treated with FA GeneTAC. Cells were allowed to incubate for 48 hrs prior to cell lysis using guanidine isothiocyanate solution.
RNA isolation: Total RNA was isolated and purified in 384-well column filter plates using chaotropic salt.
qRT-PCR: qRT-PCR reactions were assembled using AgPath-ID reagents (Thermo Fisher) using 6 μL mastermix and 4 μL RNA. qRT-PCR TaqMan primer probe sets against human FXN (Assay ID Hs01075496 ml) and human GAPDH (Assay ID Hs00266705_g1) were used to measure the intended targets. qRT-PCR was run on the ThermoFisher QuantStudio 6 PRO instrument using the manufacturer's recommended cycling conditions.
Data analysis: qPCR data was analyzed using Thermo Fisher Design and Analysis software. Data was exported to Excel and hFXN expression was normalized to hGAPDH expression
A<100 nM; B is 100 nM to 500 nM; C>500 nM.

Row | Compound | EC50
1 | COC(C)(C)c1ccc(Oc2c(C)cc(F)cc2C)c(-c2cn(C)c(=O)c3[nH]c(C(=O)Nc4ccc(OCCOCCOCCOCCOCCOCCOCCOCCOCCNC(=O)CCNC(=O)c5nc(NC(=O)CCNC(=O)c6cc(NC(=O)c7nc(NC(=O)CCNC(=O)c8cc(NC(=O)c9nccn9C)cn8C)cn7C)cn6C)cn5C)cc4)cc23)c1 [Compound 1] | < 100 nM
2 | Cc1cc(F)cc(C)c1Oc1ccc(S(C)(=O)=O)cc1-c1cn(C)c(=O)c2[nH]c(C(=O)Nc3ccc(OCCOCCOCCOCCOCCOCCOCCOCCOCCNC(=O)CCNC(=O)c4nc(NC(=O)CCNC(=O)c5cc(NC(=O)c6nc(NC(=O)CCNC(=O)c7cc(NC(=O)c8nccn8C)cn7C)cn6C)cn5C)cn4C)cc3)cc12 [Compound 2] | < 100 nM
3 | CCS(=O)(=O)c1ccc(Oc2c(C)cc(F)cc2C)c(-c2cn(C)c(=O)c3[nH]c(C(=O)Nc4ccc(OCCOCCOCCOCCOCCOCCOCCOCCOCCNC(=O)CCNC(=O)c5nc(NC(=O)CCNC(=O)c6cc(NC(=O)c7nc(NC(=O)CCNC(=O)c8cc(NC(=O)c9nccn9C)cn8C)cn7C)cn6C)cn5C)cc4)cc23)c1 [Compound 3] | < 100 nM
4 | COCCOCCOCCOCCOCCOCCOc1cc(NC(=O)c2cc3c(-c4cc(C(C)(C)O)ccc4Oc4c(C)cc(F)cc4C)cn(C)c(=O)c3[nH]2)ccc1OCCOCCOCCOCCOCCOCCOCCOCCOCCNC(=O)CCNC(=O)c1nc(NC(=O)CCNC(=O)c2cc(NC(=O)c3nc(NC(=O)CCNC(=O)c4cc(NC(=O)c5nccn5C)cn4C)cn3C)cn2C)cn1C [Compound 4] | < 100 nM
5 | Cc1cc(F)cc(C)c1Oc1ccc(C(C)(C)O)cc1-c1cn(C)c(=O)c2[nH]c(C(=O)NCc3cn(CCOCCOCCOCCOCCOCCOCCOCCOCCNC(=O)CCNC(=O)c4nc(NC(=O)CCNC(=O)c5cc(NC(=O)c6nc(NC(=O)CCNC(=O)c7cc(NC(=O)c8nccn8C)cn7C)cn6C)cn5C)cn4C)nn3)cc12 [Compound 5] | < 100 nM
6 | Cc1cc(F)cc(C)c1Oc1ccc(C(C)(C)O)cc1-c1cn(C)c(=O)c2[nH]c(C(=O)NCc3ccc(OCCOCCOCCOCCOCCOCCOCCOCCOCCNC(=O)CCNC(=O)c4nc(NC(=O)CCNC(=O)c5cc(NC(=O)c6nc(NC(=O)CCNC(=O)c7cc(NC(=O)c8nccn8C)cn7C)cn6C)cn5C)cn4C)cc3)cc12 [Compound 6] | < 100 nM
7 | Cc1cc(F)cc(C)c1Oc1ccc(C(C)(C)O)cc1-c1cn(C)c(=O)c2[nH]c(C(=O)Nc3ccc(OCCOCCOCCOCCOCCOCCOCCOCCOCCNC(=O)c4nc(NC(=O)CCNC(=O)c5cc(NC(=O)c6nc(NC(=O)CCNC(=O)c7cc(NC(=O)c8nccn8C)cn7C)cn6C)cn5C)cn4C)cc3)cc12 [Compound 7] | < 100 nM
8 | Cc1cc(F)cc(C)c1Oc1ccc(C(C)(C)O)cc1-c1cn(C)c(=O)c2[nH]c(C(=O)Nc3ccc(OCCOCCOCCOCCOCCOCCOCCOCCOCCNC(=O)c4nc(NC(=O)CCNC(=O)c5cc(NC(=O)c6nc(NC(=O)CCNC(=O)c7cc(NC(=O)c8nccn8C)c[nH]7)cn6C)c[nH]5)cn4C)cc3)cc12 [Compound 9] | < 100 nM
9 | Cc1cc(F)cc(C)c1Oc1ccc(C(C)(C)O)cc1-c1cn(C)c(=O)c2[nH]c(C(=O)Nc3ccc(OCCOCCOCCOCCOCCOCCOCCOCCOCCNC(=O)CCNC(=O)CCNC(=O)c4nc(NC(=O)CCNC(=O)c5cc(NC(=O)c6nc(NC(=O)CCNC(=O)c7cc(NC(=O)c8nccn8C)cn7C)cn6C)cn5C)cn4C)cc3)cc12 [Compound 10] | < 100 nM
10 | Cc1cc(F)cc(C)c1Oc1ccc(C(C)(C)O)cc1-c1cn(C)c(=O)c2[nH]c(C(=O)Nc3ccc(OCCOCCOCCOCCOCCOCCNC(=O)CCNC(=O)c4nc(NC(=O)CCNC(=O)c5cc(NC(=O)c6nc(NC(=O)CCNC(=O)c7cc(NC(=O)c8nccn8C)cn7C)cn6C)cn5C)cn4C)cc3)cc12 [Compound 11] | < 100 nM
11 | Cc1cc(F)cc(C)c1Oc1ccc(C(C)(C)O)cc1-c1cn(C)c(=O)c2[nH]c(C(=O)Nc3ccc(OCCOCCOCCOCCOCCOCCOCCOCCOCCNC(=O)CCNC(=O)c4nc(NC(=O)CCNC(=O)c5cc(NC(=O)c6nc(NC(=O)CCNC(=O)c7cc(NC(=O)c8nccn8C)cn7C)cn6C)cn5C)cn4C)c(O)c3)cc12 [Compound 12] | < 100 nM
12 | Cc1cc(F)cc(C)c1Oc1ccc(C(C)(C)O)cc1-c1cn(C)c(=O)c2[nH]c(C(=O)Nc3ccc(OCCOCCOCCOCCOCCOCCOCCOCCOCCNC(=O)CCNC(=O)c4nc(NC(=O)CCNC(=O)c5cc(NC(=O)c6nc(NC(=O)CCNC(=O)c7cc(NC(=O)c8nccn8C)cn7C)cn6C)cn5C)cn4C)cc3)cc12 [Compound 15] | < 100 nM
13 | CCNC(=O)c1cc2c(-c3cc(C(C)(C)O)ccc3Oc3c(C)cc(OCCOCCOCCOCCOCCOCCOCCOCCOCCNC(=O)CCNC(=O)c4nc(NC(=O)CCNC(=O)c5cc(NC(=O)c6nc(NC(=O)CCNC(=O)c7cc(NC(=O)c8nccn8C)cn7C)cn6C)cn5C)cn4C)cc3C)cn(C)c(=O)c2[nH]1 [Compound 17] | < 100 nM
